In one experiment the test system is gut flora. The experiment in a line: Effect on gut flora and fecal production. The arrangement: species or system rats. The settings on record: rat, in vivo.
In a further experiment the test system is Klebsiella pneumoniae. Format: cell-based.
Experiment [1] deals with bacteria. In kind it is cell-based.
The subject of experiment [2] is V.cholerae, S.flexneri, and Y.enterocolitica.
In experiment [3] the test system is methicillin-resistant S. aureus (MRSA). The experiment in a line: Agar diffusion, zones of inhibition. Format: cell-based, Staphylococcus aureus. The settings on record: MRSA (27 isolates); discs Bi(No3)3 157 μg, BAL 186 μg, BisBAL 157/31 μg; 24 h, 37° C. (In agar diffusion tests the substance spreads into inoculated agar from a disc or well.)
The next experiment deals with E. coli and Salmonella. Particulars: lag time and 18 hour turbidity only marginally affected.
The subject of the next experiment is Helicobacter pylori. Format: cell-based.
Experiment [4] relates to vancomycin-resistant enterococci (VRE). In kind it is cell-based.
For experiment [5], the system named is bacteria. The experiment in a line: Effect of cations (iron, copper) in culture medium on antibacterial activity. Format: cell-based. The settings on record: iron added to culture medium. The method, then:
Oxygen tension effects were determined by agar diffusion in aerobic, microaerophilic (Candle jar), and anaerobic (GasPak) conditions. […] Other amounts and ratios were tested. Culture condition effects, such as pH or temperature were evaluated in broth mediums.
Therefore, these antagonists could be used to neutralize BisBAL when necessary.

Turning to `O=C([O-])c1ccccc1[O-].[Bi+3].[OH-]` [BSS], in the experiment on gut flora, the “Effect on gut flora” value was “does not have a significant growth-inhibiting effect”.

With `[H]/N=C(\N/C(=N/[H])NCCCCCCNC(=N)NC(=N)Nc1ccc(Cl)cc1)Nc1ccc(Cl)cc1` [CHX, chlorhexidine], the “Effect on CPS expression” value in the experiment with Klebsiella pneumoniae (even at 0.75 of the MIC) is “no significant effect”.

As for `O=S(=O)(O)CC(S)CS` (stereo not drawn) [DMPS, 2,3-dimercaptopropane-1-sulfonic acid], the “Effect of thiol-containing chelator on antibacterial properties of bismuth” value (“Effect of thiol-containing chelator” below) with bacteria [1] is on record as “do not increase its antibacterial properties”.

Take `O=C(O)[C@@H](S)[C@@H](S)C(=O)O` [DMSA, dimercapto-succinic acid]: in the experiment with bacteria [1], the “Effect of thiol-containing chelator” value is listed as “do not increase its antibacterial properties”.

As for `N[C@@H](CS)C(=O)O` [cysteine], the “Effect of thiol-containing chelator” value in the experiment on bacteria [1] was “do not increase its antibacterial properties”.

As for bismuth nitrate [Bi(NO3)3], in experiment [2], the “Bi^3+ concentration bacteria could withstand” value was “up to 50 μM”. Also, the “Zones of Inhibition” value in experiment [3] is reported as 7.3 ± 2.8 mm; in experiment [4] it was 7.3 ± 1.4 mm. Further, the “Bi^3+ concentration in whose presence bacteria grew well” value in the experiment on E. coli and Salmonella is 250 to 500 µM. For the same compound, the “Zone diameter of inhibition” value in the experiment on Helicobacter pylori is “little or no zones of inhibition”. The “Concentration at which capsule and slime expression is inhibited” value with Klebsiella pneumoniae (subinhibitory levels) is “greater than 500 μM”. In addition, in the experiment with bacteria [5], the “Reversal of antibacterial effects by iron” value is “can be reversed by addition of micromolar amounts of iron”.
